# Biological target: GCS enzyme (glucosylceramide synthase) contained within Golgi preparations isolated from human A375 malignant melanoma skin cells (Homo sapiens (Human), UniProt Q16739)
# Assay: UDP-Glo glucosylceramide synthase biochemical assay
# Conditions: 1.5 μg crude golgi preparation from A375 cells; C6 ceramide and UDP-glucose at 2×Km; 20 h incubation at room temperature; UDP detected by luminescence
# Description: UDP-Glo™ Glucosylceramide Synthase Biochemical Assay
# A UDP-Glo™ glucosylceramide synthase biochemical assay was utilized to evaluate the effect of test compounds on the activity of endogenous levels of GCS enzyme contained within Golgi preparations isolated from human A375 malignant melanoma skin cells. The UDP-Glo™ glucosylceramide synthase assay uses UDP-Glucose as a nucleotide-glycosyl donor and ceramide as substrate acceptor molecules. In the reaction, glucosylceramide synthase (GCS) transfers glucose from UDP-Glucose to ceramide. Glucosylceramide and UDP are released as products.
# Using Promega's UDP-Glo™ Glycosyltransferase assay kit (Promega Corporation, Madison, WI, USA (Promega)), GCS activity was indirectly measured by detecting the amount of UDP produced. An aliquot of GCS enzyme (1.5 μg crude golgi preparation, total protein) and titrated test compound were aliquoted to each well and incubated for 30 minutes at room temperature. Substrate mixture was prepared by mixing C6 ceramide (Avanti Polar Lipids, Alabaster, AL USA (Avanti)) (micelles prepared at 0.6 mM in 0.6 mM DOPC) and UDP-glucose (20 μ.M; Promega), at concentrations equivalent to 2×Km, in assay buffer (25 mM HEPES (pH 7.5), 50 mM KCl, 5 mM MgCl2). An equivalent volume of substrate mixture was then added to each well. Following a 20 h incubation at room temperature to allow for GCS turnover of substrate, an equal volume of UDP detection reagent (Promega) was added to each well and incubated for an additional 75 minutes at room temperature to simultaneously convert the accumulated UDP product into ATP and generate light in a luciferase reaction. The generated light was detected using a luminometer. […] luminescence values (RLUs) were normalized to mean “min” and “max” effects, as determined on each plate. “Min” was defined as the mean of the values of the wells treated with vehicle (DMSO) and which represent 0% inhibition; “max” was defined as the mean of the values of the wells treated with a reference inhibitor and which represent the 100% effect. Values for % Emax and EC50 were determined by best-fitting the normalized data to a curve in Activity Base along a four-parameter logistic nonlinear regression (4PL) model (based on the Levenberg-Marquardt algorithm and defined by the equation below): […]
# where: n is 4PMin (bottom of the curve); m is 4PMax (top of the curve); i is IP (inflection point of curve); and p is slope. See Levenberg, K., “A Method for the Solution of Certain Problems in Least Squares”, Quart. Appl. Math. 2, (1944), pp 164-168 and Marquardt, D., “An Algorithm for Least Squares Estimation on Nonlinear Parameters”, SIAM J. Appl. Math. 11, (1963) pp 431-441.
# Sequence of GCS enzyme (glucosylceramide synthase) contained within Golgi preparations isolated from human A375 malignant melanoma skin cells (Q16739 whole entry): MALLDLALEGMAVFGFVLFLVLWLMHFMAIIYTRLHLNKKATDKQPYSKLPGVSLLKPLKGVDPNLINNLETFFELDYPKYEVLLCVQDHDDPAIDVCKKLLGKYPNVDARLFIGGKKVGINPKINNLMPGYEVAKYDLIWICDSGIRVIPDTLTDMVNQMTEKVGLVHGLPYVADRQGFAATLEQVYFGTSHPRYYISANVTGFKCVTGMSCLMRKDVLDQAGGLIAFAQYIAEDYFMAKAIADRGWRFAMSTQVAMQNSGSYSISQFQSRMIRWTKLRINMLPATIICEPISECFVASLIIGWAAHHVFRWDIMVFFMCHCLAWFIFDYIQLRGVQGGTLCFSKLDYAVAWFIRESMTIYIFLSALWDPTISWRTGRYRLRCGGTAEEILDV
row,Structure (SMILES),EC50
1,"O=C(NC1CNCCC1(F)F)c1cc2cccc(-c3ccccc3OCC(F)(F)F)c2o1 (racemic) [Compound 14, (R and S)-N-(4,4-difluoro-3-piperidyl)-7-[2-(2,2,2-trifluoroethoxy)phenyl] benzofuran-2-carboxamide]",480 pM
2,"O=C(Nc1ccc2cnccc2n1)c1cc2cccc(-c3ccccc3OCC(F)(F)F)c2o1 [Compound 22, N-(1,6-naphthyridin-2-yl)-7-[2-(2,2,2-trifluoroethoxy)phenyl] benzofuran-2-carboxamide]",23 pM
3,"CCCCOc1ccccc1-c1cccc2cc(C(=O)NC3CN4CCC3CC4)oc12 (racemic) [Compound 21, (R and S)-7-(2-butoxyphenyl)-N-quinuclidin-3-yl-benzofuran-2-carboxamide]",21 pM
4,"Cc1cccc(NC(=O)c2cc3cccc(-c4c(C)nn(C)c4C)c3o2)n1 [Compound 12, N-(6-methyl-2-pyridyl)-7-(1,3,5-trimethylpyrazol-4-yl)benzofuran-2-carboxamide]",21000 pM
5,"CCCCOc1ccccc1-c1cccc2cc(C(=O)NC(C)(C)CO)oc12 [Compound 13, 7-(2-butoxyphenyl)-N-(2-hydroxy-1,1-dimethyl-ethyl)benzofuran-2-carboxamide]",28000 pM
6,"O=C(NC1CN2CCC1CC2)c1cc2cc(Cl)cc(-c3ccccc3OCCF)c2o1 (racemic) [Compound 20, (R and S)-5-chloro-7-[2-(2-fluoroethoxy)phenyl]-N-quinuclidin-3-yl-benzofuran-2-carboxamide]",20 pM
7,"Cc1nn(C)c(C)c1-c1cccc2cc(C(=O)Nc3ccc4cnccc4n3)oc12 [Compound 2, N-(1,6-naphthyridin-2-yl)-7-(1,3,5-trimethylpyrazol-4-yl)benzofuran-2-carboxamide]",65 pM
8,"O=C(NC1CNCCC1(F)F)c1nc2cccc(-c3ccccc3OCC(F)(F)F)c2o1 (racemic) [Compound 39, (R and S)-N-(4,4-difluoropiperidin-3-yl)-7-(2-(2,2,2-trifluoroethoxy)phenyl)benzo[d]oxazole-2-carboxamide]",44000 pM
9,"O=C(NC1CCC(O)CC1F)c1cc2cccc(-c3ccccc3OCC(F)(F)F)c2o1 (stereo not drawn) [Compound 11, N-(2-fluoro-4-hydroxy-cyclohexyl)-7-[2-(2,2,2-trifluoroethoxy)phenyl] benzofuran-2-carboxamide]",7100 pM
10,"CC(C)Oc1ccc(C#N)cc1-c1cc(F)cc2cc(C(=O)NC(C)(C)CO)oc12 [Compound 29, 7-(5-cyano-2-isopropoxy-phenyl)-5-fluoro-N-(2-hydroxy-1,1-dimethyl-ethyl)benzofuran-2-carboxamide]",820 pM
11,"O=C(N[C@H]1CC[C@H](CO)CC1)c1cc2cc(F)cc(-c3ccccc3OCC(F)(F)F)c2o1 [Compound 1, 5-fluoro-N-(trans-4-(hydroxymethyl)cyclohexyl)-7-(2-(2,2,2-trifluoroethoxy)phenyl) benzofuran-2-carboxamide]",990 pM

# The remaining lines, values ahead:
row,EC50,Structure (SMILES)
1,990 pM,"O=C(Nc1cccnc1)c1cc2cccc(-c3ccccc3OCC(F)(F)F)c2o1 [Compound 7, N-(3-pyridyl)-7-[2-(2,2,2-trifluoroethoxy)phenyl] benzofuran-2-carboxamide]"
2,1400 pM,"CCCOc1ccccc1-c1cccc2cc(C(=O)NC3CNCCC3(F)F)oc12 (single isomer, unassigned) [Compound 36, (R or S)-N-(4,4-difluoro-3-piperidyl)-7-(2-propoxyphenyl)benzofuran-2-carboxamide]"
3,34000 pM,"O=C(N[C@H]1CC[C@H](O)CC1)c1cc2cccc(-c3ccccc3OCC(F)(F)F)c2o1 [Compound 34, Trans-N-(4-hydroxycyclohexyl)-7-[2-(2,2,2-trifluoroethoxy)phenyl] benzofuran-2-carboxamide]"
4,600 pM,"COc1ccc(Cl)cc1-c1cc(F)cc2cc(C(=O)N[C@H]3C[C@@H](CO)C3)oc12 [Compound 28, Cis-7-(5-chloro-2-methoxy-phenyl)-5-fluoro-N-[3-(hydroxymethyl)cyclobutyl]be nzofuran-2-carboxamide]"
5,790 pM,"COc1ncc(C#N)cc1-c1cccc2cc(C(=O)NC34CCC(O)(CC3)C4)oc12 [Compound 38, 7-(5-cyano-2-methoxypyridin-3-yl)-N-(4-hydroxybicyclo[2.2.1]heptan-1-yl)benzofuran-2-carboxamide]"
6,140000 pM,"CCCOc1ccccc1-c1cccc2cc(C(=O)NC3CCNCC3(F)F)oc12 (single isomer, unassigned) [Compound 18, N-[(4R or 4S)-3,3-difluoro-4-piperidyl]-7-(2-propoxyphenyl)benzofuran-2-carboxamide]"
7,1100 pM,"COc1ncc(Cl)cc1-c1cccc2cc(C(=O)NC34CCC(O)(CC3)C4)oc12 [Compound 8, 7-(5-chloro-2-methoxy-3-pyridyl)-N-(4-hydroxynorbornan-1-yl)benzofuran-2-carboxamide]"
8,240 pM,"C[C@]1(NC(=O)c2cc3cc(F)cc(-c4ccccc4OCC(F)(F)F)c3o2)CC[C@H](O)CC1 [Compound 27, Cis or trans-5-fluoro-N-(4-hydroxy-1-methyl-cyclohexyl)-7-[2-(2,2,2-trifluoroethoxy)phenyl] benzofuran-2-carboxamide]"
9,97 pM,"COc1ccc(C#N)cc1-c1cccc2cc(C(=O)NC34CCC(O)(CC3)C4)oc12 [Compound 3, 7-(5-cyano-2-methoxy-phenyl)-N-(4-hydroxynorbornan-1-yl)benzofuran-2-carboxamide]"
10,44 pM,"CC(C)Oc1ccc(C#N)cc1-c1cc(Cl)cc2cc(C(=O)N[C@H]3C[C@@H](O)C3)oc12 [Compound 24, Cis-5-chloro-7-(5-cyano-2-isopropoxy-phenyl)-N-(3-hydroxycyclobutyl) benzofuran-2-carboxamide]"
11,870 pM,"O=C(NC12CCC(O)(CC1)C2)c1cc2cccc(-c3cc(Cl)cnc3OC(F)F)c2o1 [Compound 6, 7-[5-chloro-2-(difluoromethoxy)-3-pyridyl]-N-(4-hydroxynorbornan-1-yl)benzofuran-2-carboxamide]"
12,170 pM,"COc1ccc(C#N)cc1-c1cc(Cl)cc2cc(C(=O)N[C@@H]3CC[C@H](O)C3)oc12 [Compound 5, 5-chloro-7-(5-cyano-2-methoxy-phenyl)-N-[(1R,3S)-3-hydroxycyclopentyl] benzofuran-2-carboxamide]"
13,260 pM,"COc1ccc(C#N)cc1-c1cccc2cc(C(=O)N[C@@H]3CC[C@H](O)C3)oc12 [Compound 19, 7-(5-cyano-2-methoxyphenyl)-N-((1R,3S)-3-hydroxycyclopentyl)benzofuran-2-carboxamide]"
14,1700 pM,"CC(CO)C12CC(NC(=O)c3cc4cccc(-c5ccccc5OCC(F)(F)F)c4o3)(C1)C2 (racemic) [Compound 9, (R and S)-N-[3-(2-hydroxy-1-methyl-ethyl)-1-bicyclo[1.1.1]pentanyl]-7-[2-(2,2,2-trifluoroethoxy)phenyl] benzofuran-2-carboxamide]"
15,3400 pM,"COc1ccc(F)c(F)c1-c1cccc2cc(C(=O)N[C@@H]3CC[C@H](O)C3)oc12 [Compound 30, 7-(2,3-difluoro-6-methoxy-phenyl)-N-[(1R,3S)-3-hydroxycyclopentyl] benzofuran-2-carboxamide]"
16,4100 pM,"COc1cc(-c2ccccc2OCC(F)(F)F)c2oc(C(=O)NC3CCC(CO)CC3)cc2c1 (stereo not drawn) [Compound 31, N-[4-(hydroxymethyl)cyclohexyl]-5-methoxy-7-[2-(2,2,2-trifluoroethoxy)phenyl] benzofuran-2-carboxamide]"

# Reference: US20230391758A1, “MODIFIED BENZOFURAN-CARBOXAMIDES AS GLUCOSYLCERAMIDE SYNTHASE INHIBITORS” (MERCK SHARP & DOHME CORP., priority 2020, published 2023)
